Assay results as given in ChEMBL document CHEMBL3507680, “University of Dundee, Gates Library screen for HepG2 cell viability”.

assay: Human HepG2 cell viability assay in 384 well format; type: toxicity, cell-based; set-up: dose 125 nL, time 70.5 hour; concentration not given beside the values; conditions: HepG2 cells, read-out: Inhibition

| Structure (SMILES) | cytotoxicity at 70.5 h [%] |
| --- | --- |
| CC(NC(=O)Nc1cccnc1N1CCCC1)c1ccn(C)c1 (centres undefined) | 25 |
| Fc1ccc(OCC2CCCO2)c(NCc2cn3cccnc3n2)c1 (centres undefined) | 8.09 |
| CC(C)c1[nH]c2ncccc2c1CN1CCN(S(=O)(=O)N(C)C)CC1 | -7.69 |
| COc1ccc(C)cc1-c1[nH]c2ccccc2c1C(=O)O | -10.2 |
| COCC1CC2(CCN(Cc3ccoc3)CC2)CN1Cc1ccccn1 (centres undefined) | 16.1 |
| Cc1cccnc1CCNC(=O)CC1C(=O)NCCN1CCC(C)C (centres undefined) | 19.9 |
| COC(=O)C1CN(Cc2nc(-c3ccccc3)cs2)C[C@@H](C)O1 (some centres undefined) | 3.89 |
| CCOCCN1C[C@@H]2CCCO[C@@H]2[C@H](NC(=O)c2cnoc2C)C1 | -6.18 |
| CN(C)CC(=O)N1CCCC1c1cncc(Oc2ccc(F)cc2)n1 (centres undefined) | 11.5 |
| COCCN1C[C@@H]2CN(Cc3cccc(F)c3)CCC[C@]2(C(=O)O)C1 | 20.7 |
| O=C(Cc1ccsc1)N1CCc2ncc(Cn3cccn3)n2CC1 | -13.8 |
| OC[C@H]1CN(Cc2c(Cl)cncc2Cl)C[C@H]1CN1CCCCCC1 | -1.47 |
| CCOCC1CN(Cc2cccnc2OC)Cc2cnn(C)c21 (centres undefined) | 2.89 |
| CCN(C)S(=O)(=O)c1ccc(Cl)cc1C#N | -7.9 |
| CNC(=O)[C@@H]1[C@@H](OC(=O)Nc2ccccc2)C(=O)N(C)C12CCNCC2 | -2.76 |
| Cn1c(C(=O)N2CC[C@@]3(O)CCCC[C@H]3C2)cc2ccccc21 | -3.98 |
| CC(=O)N1CCCn2nc(CNc3cc(C)ncn3)cc2C1 | 15 |
| Cc1ccc(C(C(=O)O)N2CCCN(Cc3ccccn3)CC2)c(F)c1 (centres undefined) | -4.69 |
| O=S1(=O)CCC(n2cc(CNCC3(c4ccccc4)CC3)cn2)C1 (centres undefined) | 30.7 |
| Cc1ccccc1SCC(=O)NS(=O)(=O)c1ccc2c(c1)OCCO2 | -2.48 |
| CCCc1cc(=O)[nH]c2nnc(SCC(N)=O)n12 | 23.3 |
| CN(C)c1ncnc2c1CCN(c1ccccc1)CC2 | 13.6 |

| Structure (SMILES) | cytotoxicity at 70.5 h [%] |
| --- | --- |
| COc1cc(CN2CCCCCC2c2cccs2)cc(OC)c1O (centres undefined) | -2.15 |
| CC(C)OC(=O)N1C[C@H]2CC[C@@H]1CN(Cc1cccnc1)C2 | -3.17 |
| Cc1ccc(CN2CC[C@H]3OCC[C@@H](C(=O)N4CCCCO4)[C@@H]3C2)o1 | 47.1 |
| CN1CCc2nc(N(C)C)nc(N3CCC(O)CC3)c2C1 | -9.46 |
| Cc1nn(C)c(C)c1CC(=O)NCc1cccnc1OC1CCCC1 | -3.95 |
| CC(C)C1CN(C(=O)Nc2cnn(CC(F)F)c2)CCO1 (centres undefined) | -4.6 |
| COc1ccc(-n2c(SC)nc(O)c(Cc3ccccc3)c2=O)cc1 | -2.29 |
| CS(=O)(=O)N1CCCC12CCCN(S(=O)(=O)c1cccc(F)c1)C2 (centres undefined) | 2.16 |
| NC(=O)COc1cccc(C(=O)NCc2ccc(Cl)s2)c1 | -11.8 |
| O=C(c1cocn1)N1C[C@@H]2CN(CC3CC3)CCO[C@@H]2C1 | -1.55 |
| Cc1ccccc1-n1cc(C2=CCN(CCN3CCOCC3)CC2)cn1 | 12.8 |
| CCN1CCN(C(=O)c2c[nH]c(C(C)C)n2)c2ccccc21 | 2.09 |
| Cc1cnc(CNC(=O)NCc2cccnc2N(C)C)s1 | -17.2 |
| CC(=O)N1CCC2(CCN(Cc3ccc(Cl)c(C(F)(F)F)c3)CC2)C1 | -11.6 |
| O=S(=O)(C1CC1)N1C[C@H]2CCC[C@@]2(COc2ccccn2)C1 | -19.4 |
| C[C@H]1CN(C(=O)c2cccnc2)C[C@@]12CCN(CCN1CCCC1)C2=O | -6.14 |
| CCC(O)CN1CCN(C(=O)c2cccn2Cc2ccccc2)CC1 (centres undefined) | -10.3 |
| Cc1cc(NC(=O)NCCC(=O)N2CCCc3ccccc32)no1 | -6.7 |
| CN(Cc1ccc(C(=O)O)cc1)C(=O)c1sccc1OC(F)F | 3.59 |
| Cc1ncsc1C(=O)NCCSCc1cccs1 | -1.32 |
| CC(NC(=O)N1CCC[C@H]1CO)c1noc(-c2ccccc2)n1 (some centres undefined) | -3.8 |
| CCc1noc(C)c1C(=O)N1CCCN(Cc2cscn2)CC1 | -10.2 |

| Structure (SMILES) | cytotoxicity at 70.5 h [%] |
| --- | --- |
| c1cnnc(N2CCCC(NCc3cn4ccccc4n3)C2)c1 (centres undefined) | 15.8 |
| OCc1ccc(-c2nccn2CCC2=CCCCC2)o1 | -9.58 |
| Cc1nccc(N2CC[C@@H]3[C@@H](CCC(=O)N3CCc3ccccc3)C2)n1 | -6.49 |
| O=C(C1CCCCO1)N1CCc2ncnc(NCc3ccon3)c2CC1 (centres undefined) | -9.14 |
| Cc1cccc(C2(C(=O)NCC(C)CN3CCCC3=O)CC2)c1 (centres undefined) | -11.5 |
| CN(Cc1nccn1C)C1CCN(CCc2ccccn2)CC1 | 0.568 |
| O=C(CN1CCCCC1Cn1cncn1)NCc1ccccn1 (centres undefined) | -4.27 |
| Cc1cnc2c(S(=O)(=O)NCC3CC3)cccc2c1 | -1.56 |
| CCN1CC[C@@H]2OC[C@H](C(=O)NCc3cccs3)C[C@@H]2C1 | 45.7 |
| CS(=O)(=O)c1ccc(NC(=O)N2C[C@H](O)[C@@H](N3CCOCC3)C2)cc1 | 20.5 |
| O=S(=O)(CCN1CCCCC1Cn1cccn1)c1ccccc1 (centres undefined) | -28.3 |
| Cc1nn(C)c(N2CCOCC2)c1CNC(c1cccs1)C(C)C (centres undefined) | 6.88 |
| C1CC(NCc2nc(C3CC3)no2)CN(Cc2noc(C3CC3)n2)C1 (centres undefined) | 21.5 |
| CCC(=O)NC(CC(C)C)c1cccs1 (centres undefined) | -14 |
| CS(=O)(=O)NCc1ncn2c1CN(C(=O)C1CCCO1)CCC2 (centres undefined) | 0.98 |
| Clc1cccc(C2CCN(c3ncnc4c3CCNC4)C2)c1 (centres undefined) | -1.22 |
| CCN(CC)C(=O)CCNC(=O)c1ccccc1N1CCOCC1 | 23.2 |
| Cc1nccc(N2CCC(=O)N(Cc3ccc(F)cc3)C(C(C)C)C2)n1 (centres undefined) | -2.7 |
| CN(Cc1cnn(C)c1)S(=O)(=O)N1CCCCCC1 | -9.53 |
| CN(Cc1ccccn1)C(C(=O)O)c1ccc2c(c1)OCO2 (centres undefined) | -2.22 |
| CN(Cc1ccco1)C[C@H]1OC[C@@H]2CCN(Cc3cccnc3)C[C@@H]21 | -7.43 |
| CN(C)C1CC2(CCN(C(=O)NC3CC3)CC2)c2ccccc21 (centres undefined) | -7.23 |

| Structure (SMILES) | cytotoxicity at 70.5 h [%] |
| --- | --- |
| COc1ncccc1CN1CC[C@H]2O[C@@H](c3nnc(C)o3)CC[C@H]21 | -6.07 |
| CN(c1cccnn1)[C@@H]1CC[C@@H]2CN(Cc3ccccc3C(=O)O)C[C@@H]21 | -6.92 |
| CC(=O)N1CCN(C(=O)c2snnc2C)[C@H]2CS(=O)(=O)C[C@H]21 | -6.51 |
| CC(=O)N1[C@H](Cn2cncn2)C[C@@H]2CN(Cc3cccnc3)CC[C@@H]21 | -2.89 |
| COc1ccc(Cl)cc1NCC(=O)NCCNc1cnccn1 | -10.9 |
| CC(C)C(=O)N1CCC[C@]2(C(=O)N(C)C)CN(c3ccccn3)C[C@@H]2C1 | 11.4 |
| Cc1ccc(OC[C@@H]2CNC[C@H](C(=O)NCC3CCCO3)C2)cn1 (some centres undefined) | -1.9 |
| CN1CCN([C@@H]2CN(C(=O)c3cc4ccc(F)cc4[nH]3)C[C@H]2O)CC1 | -3.6 |
| Cc1nc(C2CCCN2C(=O)COCc2ccccc2)no1 (centres undefined) | -10.2 |
| CC(=O)N(Cc1ncc(C(C)C)o1)C1CCN(Cc2cc(C)on2)C1 (centres undefined) | -6.93 |
| COc1cccc(Cn2cc(N3C(=O)CCC3=O)cn2)c1 | 3.42 |
| Cc1ccc(CN2CC[C@H](c3nnc(-c4ccco4)o3)C2)cc1 | 6.16 |
| COc1cnc(N2CCCN(Cc3ccc(F)cc3)CC2)nc1 | 4.55 |
| CN(Cc1ccncc1)C(=O)[C@H]1CSCN1C(=O)OC(C)(C)C | -2.79 |
| O=C(Nc1ccccn1)C1CCN(Cc2cccc3c2OCCO3)CC1 | 27.9 |
| CN(C)c1ccc(C(=O)N2CCCCC2CC(N)=O)c(F)c1 (centres undefined) | -1.41 |
| Cc1cccc2cc(C(=O)N3CCN(S(=O)(=O)N(C)C)CC3)n(C)c12 | 1.01 |
| Cn1cc(CN2CC[C@@H]3O[C@H](C(=O)N4CCOCC4)C[C@@H]32)cn1 | -5.63 |
| Cn1cc(CN2CCCN(C(=O)c3sccc3C#N)CC2)cn1 | -2.13 |
| CSCc1ccc(N(C)CC2CCCN(C(C)C)C2)nc1 (centres undefined) | -2.8 |
| Cc1nsc(N2CCN(C(=O)Nc3cccc(F)c3)CC2)n1 | 13.5 |
| CCCc1nc(Nc2cccc(C(N)=O)c2)c2c(n1)c(C)nn2CC | -4.15 |

| Structure (SMILES) | cytotoxicity at 70.5 h [%] |
| --- | --- |
| O=C(C[C@@H]1COC[C@H]2CN(C(=O)c3cccnc3)C[C@@H]12)N1CCCC1 | 1.64 |
| C[C@@H]1CN(C(=O)CCc2cnn(C)c2)CC[C@@]1(O)C1CCOCC1 | 8.15 |
| CNC(=O)NC(=O)CCN1CCN(c2ccc(C(=O)OC)cc2)CC1C (centres undefined) | -9.55 |
| Cc1cc(C)n(CC2CCCN2CC(=O)N(C)Cc2cnn(C)c2)n1 (centres undefined) | -9.95 |
| CCN(CC)Cc1cc(=O)n2c(n1)CN(S(=O)(=O)C1CC1)CCC2 | -7.27 |
| N#Cc1cccc(N2CCCC3(CN(C(=O)c4ccc[nH]4)CCO3)C2)c1 (centres undefined) | -5.89 |
| Cc1nc(CNc2ccccc2CCC(F)(F)F)cs1 | -9.96 |
| c1cn(-c2cnc(C3CCNCC3)cn2)cn1 | -10.7 |
| CCOc1c(Cl)cc(Cl)cc1CNCCCn1ccnc1 | -10.4 |
| c1csc(CN2CCCn3nnc(COCC4CC4)c3C2)n1 | -11 |
| COc1ccc(CCC2CCCCN2)cc1OC (centres undefined) | 19.8 |
| NC(=O)COc1ccc(C(=O)N2CCCC(n3ccnc3)C2)cc1 (centres undefined) | -3 |
| CCN(C)c1ncnc2c1CCN(Cc1ccc(OC)cc1)CC2 | -2.63 |
| CCc1ncc(S(C)(=O)=O)c(C2CCCNC2)n1 (centres undefined) | -5.94 |
| c1cc(CCNc2ccc(CC3CCNC3)cn2)ccn1 (centres undefined) | -4.08 |
| Cn1cc(C(=O)N2CCC(c3cc(CCO)n(C)n3)C2)cn1 (centres undefined) | -4.36 |
| Cc1cc(C)c(CNC(=O)NCC2COc3ccccc3C2)c(=O)[nH]1 (centres undefined) | -10.2 |
| CCC(O)CN1CCN(C(=O)CCc2c(C)noc2Cl)CC1 (centres undefined) | -12.7 |
| CCC(NC(=O)c1cc(CC(C)C)nn1C)c1cccc(C)n1 (centres undefined) | 8.39 |
| N#Cc1cccc(OCCN2CCNC(=O)C2c2cccs2)c1 (centres undefined) | -6 |
| Cc1nn(C)cc1S(=O)(=O)N[C@@H]1CCC[C@@H](N2CCCC2)[C@@H]1O | -9.32 |
